Measurements from patent publication US11076595B2, “1-(n,n-disubstituted carbamoyl) 4-(substituted sulfonyl)triazolin-5-one derivative, 4-(n,n-disubstituted carbamoyl) 1-(substituted sulfonyl)triazolin-5-one derivative, and herbicide containing said derivative as active ingredient” (HOKKO CHEMICAL INDUSTRY CO., LTD., priority 2017, dated 2021).

Legend:
Assay type in all cases: in vivo
Echinochloa crus-galli [1] = experiment: Test Example 12: herbicidal effect test by treatment during growing period in paddy field; details: 120 g/10a; treatment seven days after sowing in flooded paddy pot; assessed 14 days after treatment
Procedure, shortened: (§1)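 Water-diluted emulsifiable concentrate added dropwise to flooded pots (~3 cm water) 7 d after sowing; rate 120 g active ingredient per 10 are. Weeds grown from 30 seeds each in puddled paddy soil under greenhouse conditions. Dry-weight suppression rate relative to untreated plots determined 14 d after treatment, duplicates.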

Lindernia pyxidaria [2] = experiment: as above; details: 120 g/10a; treatment seven days after sowing in flooded paddy pot; assessed 14 days after treatment
Procedure, shortened: as §1

Monochoria vaginalis [3] = experiment: as above; details: 120 g/10a; treatment seven days after sowing in flooded paddy pot; assessed 14 days after treatment
Procedure, shortened: as §1

Scirpus juncoides [4] = experiment: as above; details: 120 g/10a; treatment seven days after sowing in flooded paddy pot; assessed 14 days after treatment
Procedure, shortened: as §1

crabgrass [5] = experiment: Test Example 14: herbicidal effect test by foliage treatment in upland field; details: 7 days after sowing, 120 g/10a, 14 days after treatment
Procedure, shortened: (§2)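 Weeds sown 20 seeds each in alluvial field soil; 7 days after sowing, water-diluted emulsifiable concentrate sprayed at 100 L per 10 are, 120 g active ingredient per 10 are. Suppression rate (%) from dry weight versus untreated plots at 14 days, two replicates.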

Chenopodium album [6] = experiment: as above; details: 7 days after sowing, 120 g/10a, 14 days after treatment
Procedure, shortened: as §2

Echinochloa crus-galli [7] = experiment: as above; details: 7 days after sowing, 120 g/10a, 14 days after treatment
Procedure, shortened: as §2

Amaranthus viridis [8] = experiment: as above; details: 7 days after sowing, 120 g/10a, 14 days after treatment
Procedure, shortened: as §2

Echinochloa crus-galli [9] = experiment: Test Example 11: herbicidal effect test by soil treatment in paddy field; details: 120 g/10a active ingredient, 14 days after treatment
Procedure, shortened: (§3)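 Dry weight at day 14 relative to untreated controls gives the suppression rate; duplicate pots. Treatment: 120 g a.i./10 are into paddy water at sowing.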

Lindernia pyxidaria [10] = experiment: as above; details: 120 g/10a active ingredient, 14 days after treatment
Procedure, shortened: as §3

Monochoria vaginalis [11] = experiment: as above; details: 120 g/10a active ingredient, 14 days after treatment
Procedure, shortened: as §3

Scirpus juncoides [12] = experiment: as above; details: 120 g/10a active ingredient, 14 days after treatment
Procedure, shortened: as §3

Echinochloa crus-galli [13] = experiment: Test Example 13: herbicidal effect test by soil treatment in upland field; details: 120 g/10a, 14 days after treatment
Procedure, shortened: (§4)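 Soil-applied emulsifiable concentrate at 120 g active ingredient per 10 are, sprayed one day after seeding into alluvial soil pots. Dry-weight-based suppression scored at 14 days; two replications.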

Amaranthus viridis [14] = experiment: as above; details: 120 g/10a, 14 days after treatment
Procedure, shortened: as §4

crabgrass [15] = experiment: as above; details: 120 g/10a, 14 days after treatment
Procedure, shortened: as §4

Chenopodium album [16] = experiment: as above; details: 120 g/10a, 14 days after treatment
Procedure, shortened: as §4

| SMILES | Weed suppression rate (%) Echinochloa crus-galli (Echinochloa crus-galli [1]) | Weed suppression rate (%) Lindemia pyxidaria (Lindernia pyxidaria [2]) | Weed suppression rate (%) Monochoria vaginalis (Monochoria vaginalis [3]) | Weed suppression rate (%) Scirpus juncoides (Scirpus juncoides [4]) | herbicidal effect, Crabgrass (crabgrass [5]) | herbicidal effect, Chenopodium album (Chenopodium album [6]) | herbicidal effect, Echinochloa crus-galli (Echinochloa crus-galli [7]) | herbicidal effect, Amaranthus viridis (Amaranthus viridis [8]) | Weed suppression rate (%) Echinochloa crus-galli (Echinochloa crus-galli [9]) | Weed suppression rate (%) Lindemia pyxidaria (Lindernia pyxidaria [10]) | Weed suppression rate (%) Monochoria vaginalis (Monochoria vaginalis [11]) | Weed suppression rate (%) Scirpus juncoides (Scirpus juncoides [12]) | herbicidal effect, Echinochloa crus-galli (Echinochloa crus-galli [13]) | herbicidal effect, Amaranthus viridis (Amaranthus viridis [14]) | herbicidal effect, Crabgrass (crabgrass [15]) | herbicidal effect, Chenopodium album (Chenopodium album [16]) |
| --- | --- | --- | --- | --- | --- | --- | --- | --- | --- | --- | --- | --- | --- | --- | --- | --- |
| CC(C)N(C(=O)n1cnn(S(=O)(=O)N(C)C)c1=O)c1ccc(Cl)cn1 [Compound 11-1090] | 100% | 90% | 60% | 90% | 90% | 40% | 90% | 40% | 100% | 100% | 60% | 90% | 80% | 50% | 90% | 50% |
| Cc1ccc(N(C(=O)n2cnn(S(=O)(=O)CCl)c2=O)C(C)C)c(F)c1 [Compound 11-123] | 90% | 80% | 80% | 90% | 90% | 80% | 80% | 90% | 90% | 80% | 80% | 90% | 80% | 90% | 90% | 80% |
| CC(C)N(C(=O)n1cnn(S(C)(=O)=O)c1=O)c1ccc(F)cc1Cl [Compound 11-19] | 90% | 80% | 80% | 90% | 90% | 80% | 80% | 90% | 90% | 80% | 80% | 90% | 80% | 90% | 90% | 80% |
| CC(C)N(C(=O)n1cnn(S(=O)(=O)C(C)C)c1=O)c1ccccc1 [Compound 11-48] | 90% | 70% | 90% | 70% | 100% | 70% | 90% | 40% | 90% | 80% | 80% | 90% | 80% | 90% | 90% | 80% |
| COc1ccc(S(=O)(=O)n2ncn(C(=O)N(c3cccc(F)c3F)C(C)C)c2=O)cc1 [Compound 11-1149] | 100% | 80% | 100% | 100% | 80% | 70% | 70% | 30% | 100% | 100% | 100% | 100% | 70% | 30% | 70% | 30% |
| CC(C)N(C(=O)n1cnn(S(C)(=O)=O)c1=O)c1c(F)cccc1F [Compound 11-14] | 100% | 80% | 80% | 100% | 100% | 30% | 100% | 30% | 100% | 100% | 80% | 90% | 100% | 70% | 100% | 60% |
| CCS(=O)(=O)n1ncn(C(=O)N(c2c(F)cc(F)cc2F)C(C)C)c1=O [Compound 11-1154] | 100% | 80% | 90% | 80% | 100% | 80% | 100% | 30% | 100% | 100% | 100% | 100% | 100% | 90% | 100% | 80% |
| CC(C)N(C(=O)n1cnn(S(=O)(=O)C2CC2)c1=O)c1c(F)cc(F)cc1F [Compound 11-195] | 100% | 70% | 90% | 90% | 100% | 70% | 100% | 30% | 100% | 100% | 80% | 100% | 100% | 90% | 100% | 90% |
| COc1ccc(S(=O)(=O)n2ncn(C(=O)N(c3c(F)cc(F)cc3F)C(C)C)c2=O)cc1 [Compound 11-1155] | 100% | 80% | 90% | 90% | 100% | 60% | 90% | 30% | 100% | 100% | 80% | 100% | 90% | 30% | 90% | 30% |
| CC(C)N(C(=O)n1cnn(S(=O)(=O)C(C)C)c1=O)c1ccc(F)cc1Cl [Compound 11-66] | 90% | 80% | 80% | 90% | 90% | 80% | 80% | 90% | 90% | 80% | 80% | 90% | 80% | 90% | 90% | 80% |
